{"source": "patent US9146240B2", "about": "“Systems and methods for determining a C-peptide receptor, C-peptide receptor, and methods of using same” (Saint Louis University, priority 2012, dated 2015)", "target": "T1, GPR146 (Homo sapiens, UniProt Q96CH1)", "T1 construct": "endogenous in cells; host or cells: KATOIII (human stomach carcinoma)", "T1 sequence (Q96CH1 whole entry)": "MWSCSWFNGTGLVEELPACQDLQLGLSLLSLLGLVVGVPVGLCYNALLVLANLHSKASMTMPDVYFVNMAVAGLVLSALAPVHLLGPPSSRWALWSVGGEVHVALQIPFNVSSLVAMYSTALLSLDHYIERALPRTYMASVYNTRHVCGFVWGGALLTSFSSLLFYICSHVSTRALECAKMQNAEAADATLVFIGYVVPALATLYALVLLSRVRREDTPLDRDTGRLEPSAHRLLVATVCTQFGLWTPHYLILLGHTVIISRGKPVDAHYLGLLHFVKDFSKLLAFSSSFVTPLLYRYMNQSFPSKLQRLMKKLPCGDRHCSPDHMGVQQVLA", "test": "C-peptide-induced cFos expression in KATOIII cells after siRNA transfection", "type": "cell-based", "details": "1 nmole C-peptide, 1 hour", "method": "Once the hierarchical candidates were identified and ranked, KATOIII cells were then transfected with siRNA (Integrated DNA technologies) (111) directed against either GPR107 (control), GPR146 (most likely candidate not yet tested) or eGFP (green fluorescent protein—control) using Lipofectamine […] (Invitrogen). Five hours later, the media was changed to serum free control media (ATCC) and the serum was starved overnight. Twenty-four (24) hours after transfection with siRNA, cells were treated with 1 nmole C-peptide (Phoenix Pharmaceuticals) for 1 hour, then lysed and RNA were isolated using an RNeasy Kit (Qiagen). RNA was used as a template from the production of cDNA, and changes in cFos expression were determined using RT-PCR (BioRad 2x iQ SyberGreen Master Mix, using a BioRad CFX real time system). […] As this produced the desired negative response (113), GPR146 was the target GPCR (115). The receptiveness of GPR146 to C-peptide has since been verified by additional conventional tests"}
{"substance": "C-peptide", "values": [{"measurement": "changes in cFos expression", "setting": "KATOIII cells transfected with GPR107 siRNA (control)", "result": "increase in cFos"}, {"measurement": "changes in cFos expression", "setting": "KATOIII cells transfected with GPR146 siRNA (GPR146 compromised), FIG. 6", "result": "failed to respond"}, {"measurement": "changes in cFos expression", "setting": "KATOIII cells transfected with Vehicle (Lipofectamine 2000 alone, no siRNA)", "result": "increase in cFos"}, {"measurement": "changes in cFos expression", "setting": "KATOIII cells transfected with sGFPO siRNA (control)", "result": "increase in cFos"}]}
